Experimental data published in patent US10294229B2, “Heteroaryl substituted aminopyridine compounds” (BRISTOL-MYERS SQUIBB COMPANY, priority 2015, dated 2019).

Legend:
[1] = tested on: Human whole blood stimulated with a TLR2 agonist (lipoteichoic acid), IL-6 levels; assay: IRAK4 Whole Blood Assay; format: cell-based; conditions: lipoteichoic acid 10 μg/mL
Protocol: Human whole blood containing the anti-coagulant ACD-A was plated in 384-well plate (25 μL/well) and incubated with compounds for 60 minutes at 37° C. in a 5% CO2 incubator. The blood was stimulated with a TLR2 agonist, 10 μg/mL final concentration of lipoteichoic acid (Invivogen, San Diego, Calif.) in 25 μL RPMI (Gibco) for 5 hours in a 5% CO2 incubator. At the end of the incubation, plates were centrifuged at 2300 rpm for 5 minutes. Supernatants were harvested and analyzed for IL-6 levels by Flow Cytometry beads assay (BD Biosciences, San Jose, Calif.).

IRAK4 = IRAK4 (Homo sapiens (Human), UniProt Q9NWZ3); assay: IRAK4 Inhibition Assay; format: biochemical; conditions: ATP 500 μM; IRAK4 0.6 nM
IRAK4, sequence (Q9NWZ3 whole entry, species assumed): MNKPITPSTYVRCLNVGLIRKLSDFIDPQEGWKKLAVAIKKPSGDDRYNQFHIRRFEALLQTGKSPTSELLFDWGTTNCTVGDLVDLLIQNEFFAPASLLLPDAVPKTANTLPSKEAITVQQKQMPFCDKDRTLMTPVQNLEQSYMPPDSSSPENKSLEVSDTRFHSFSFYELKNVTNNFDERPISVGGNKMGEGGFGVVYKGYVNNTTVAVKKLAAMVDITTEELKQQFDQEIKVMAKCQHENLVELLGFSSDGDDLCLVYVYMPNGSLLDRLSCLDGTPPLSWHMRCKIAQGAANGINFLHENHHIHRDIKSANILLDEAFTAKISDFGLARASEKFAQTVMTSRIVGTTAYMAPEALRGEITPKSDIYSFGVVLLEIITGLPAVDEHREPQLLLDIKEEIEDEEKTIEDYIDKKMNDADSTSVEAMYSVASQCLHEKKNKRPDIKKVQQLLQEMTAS
Outline: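 Mobility-shift readout: phosphorylated and unphosphorylated fluorescent peptide (1.5 μM) resolved by electrophoresis after a 60 min room-temperature reaction stopped with EDTA. Reaction holds 0.6 nM IRAK4, 500 μM ATP and 1.6% DMSO in HEPES pH 7.2/MgCl2/Brij 35/DTT buffer; percent inhibition set against vehicle and no-enzyme controls.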

Row | SMILES | EC50 ([1]; Homo sapiens) [nM] | IC50 (IRAK4) [nM] | EC50 [1] [nM]
1 | CC(C)Nc1cc(-n2ncc3cc(C#N)cnc32)ncc1-c1cn([C@@H]2CCC[C@H]2O)nn1 (single isomer, unassigned) [Example 82] | – | 5 | 1660
2 | CC(C)Nc1cc(-n2cnc3cc(C#N)cnc32)ncc1-c1cn([C@@H]2CCC[C@H]2O)nn1 (single isomer, unassigned) [Example 83] | – | 5 | 860
3 | CC(C)Nc1cc(-n2ncc3cc(C#N)cnc32)ncc1-c1cn([C@H](C)[C@H](C)O)nn1 (single isomer, unassigned) [Example 89] | – | 7 | 930
4 | CC(C)Nc1cc(-n2ncc3cc(C#N)cnc32)ncc1-c1cn([C@@H](C)[C@H](C)O)nn1 (single isomer, unassigned) [Example 91] | – | 5 | 1920
5 | CC(C)Nc1cc(-n2ncc3cc(C#N)cnc32)ncc1-c1cn([C@@H]2CCN(S(C)(=O)=O)C[C@H]2OS(C)(=O)=O)nn1 (single isomer, unassigned) [Example 202] | 950 | 5 | –
6 | CC(C)Nc1cc(-n2ncc3cc(C#N)cnc32)ncc1-c1cn(CCN)nn1 [Example 172, 1-(5-(1-(2-aminoethyl)-1H-1,2,3-triazol-4-yl)-4-(isopropylamino)pyridin-2-yl)-1H-pyrazolo[3,4-b]pyridine-5-carbonitrile] | 950 | – | –
7 | CC(F)Cc1cn(-c2cnc(-n3ncc4cc(C#N)cnc43)cc2NC(C)C)nn1 (stereo not shown) [Example 294, 1-(5-(4-(2-fluoropropyl)-1H-1,2,3-triazol-1-yl)-4-(isopropylamino)pyridin-2-yl)-1H-pyrazolo[3,4-b]pyridine-5-carbonitrile] | 1710 | – | –
8 | COc1cc(OC)cc(-c2cn(-c3cnc(-n4ncc5cc(C#N)cnc54)cc3NC(C)C)nn2)c1 [Example 316, 1-(5-(4-(3,5-dimethoxyphenyl)-1H-1,2,3-triazol-1-yl)-4-(isopropylamino)pyridin-2-yl)-1H-pyrazolo[3,4-b]pyridine-5-carbonitrile] | – | 244 | –
9 | CC(C)Nc1cc(-n2ncc3cc(C#N)cnc32)ncc1-n1cc(-c2cncn2C)nn1 [Example 317, 1-(4-(isopropylamino)-5-(4-(1-methyl-1H-imidazol-5-yl)-1H-1,2,3-triazol-1-yl)pyridin-2-yl)-1H-pyrazolo[3,4-b]pyridine-5-carbonitrile] | – | 60 | –
10 | CCC(C)(O)c1cn(-c2cnc(-n3ncc4cc(C#N)cnc43)cc2NC(C)C)nn1 (stereo not shown) [Example 322, 1-(5-(4-(2-hydroxybutan-2-yl)-1H-1,2,3-triazol-1-yl)-4-(isopropylamino)pyridin-2-yl)-1H-pyrazolo[3,4-b]pyridine-5-carbonitrile] | – | 39 | –
11 | CC(C)Nc1cc(-n2ncc3cc(C#N)cnc32)ncc1-n1cc(-c2ccncc2)nn1 [Example 326, 1-(4-(isopropylamino)-5-(4-(pyridin-4-yl)-1H-1,2,3-triazol-1-yl)pyridin-2-yl)-1H-pyrazolo [3,4-b]pyridine-5-carbonitrile] | – | 28 | –
12 | CC(C)Nc1cc(-n2ncc3cc(C#N)cnc32)ncc1-n1cc(CCN)nn1 [Example 328, 1-(5-(4-(2-aminoethyl)-1H-1,2,3-triazol-1-yl)-4-(isopropylamino)pyridin-2-yl)-1H-pyrazolo[3,4-b]pyridine-5-carbonitrile] | – | 26 | –
13 | CC(C)Nc1cc(-n2ncc3cc(C#N)cnc32)ncc1-n1cc(CF)nn1 [Example 329, 1-(5-(4-(fluoromethyl)-1H-1,2,3-triazol-1-yl)-4-(isopropylamino)pyridin-2-yl)-1H-pyrazolo[3,4-b]pyridine-5-carbonitrile] | – | 34 | –
14 | C[C@@H](CO)Nc1cc(-n2ncc3cc(C#N)cnc32)ncc1-n1cc(CCC(C)(C)O)nn1 [Example 376, (S)-1-(5-(4-(3-hydroxy-3-methylbutyl)-1H-1,2,3-triazol-1-yl)-4-((1-hydroxypropan-2-yl)amino)pyridin-2-yl)-1H-pyrazolo[3,4-b]pyridine-5-carbonitrile] | 380 | – | –
15 | CC(C)(O)CCc1cn(-c2cnc(-n3ncc4cc(C#N)cnc43)cc2NC2CCC(O)CC2)nn1 (stereo not shown) [Example 385, 1-(5-(4-(3-hydroxy-3-methylbutyl)-1H-1,2,3-triazol-1-yl)-4-(((1 s,4s)-4-hydroxycyclohexyl)amino)pyridin-2-yl)-1H-pyrazolo[3,4-b]pyridine-5-carbonitrile] | 490 | – | –
16 | CC(C)Nc1cc(-n2ncc3cc(C#N)cnc32)ncc1-c1cc([C@@H]2CCCCN2)on1 [Example 430, (S)-1-(4-(isopropylamino)-5-(5-(piperidin-2-yl)isoxazol-3-yl)pyridin-2-yl)-1H-pyrazolo[3,4-b]pyridine-5-carbonitrile] | 470 | – | –

Results, then the compound that gave them:

Row | EC50 ([1]; Homo sapiens) [nM] | IC50 (IRAK4) [nM] | EC50 [1] [nM] | SMILES
17 | 270 | 4 | – | CC(C)Nc1cc(-n2ncc3cc(C#N)cnc32)ncc1-n1cc(CC(F)C(C)(C)O)nn1 (racemic) [345, racemic, (±)-1-(5-(4-(2-fluoro-3-hydroxy-3-methylbutyl)-1H-1,2,3-triazol-1-yl)-4-(isopropylamino)pyridin-2-yl)-1H-pyrazolo[3,4-b]pyridine-5-carbonitrile]
18 | – | 3 | 590 | CC(C)Nc1cc(-n2ncc3cc(C#N)cnc32)ncc1-c1cn([C@@H]2CCC[C@H]2O)nn1 (single isomer, unassigned) [Example 80]
19 | 1540 | 4 | – | CC(C)Nc1cc(-n2cnc3cc(C#N)cnc32)ncc1-c1cn([C@@H]2CCC[C@H]2O)nn1 (single isomer, unassigned) [Example 81]
20 | 550 | 4 | – | CC(C)Nc1cc(-n2ncc3cc(C#N)cnc32)ncc1-c1cn([C@@H]2CCN(S(C)(=O)=O)C[C@H]2O)nn1 (single isomer, unassigned) [Example 199]
21 | – | 3 | – | CCN[C@H]1CC[C@H](c2cn(-c3cnc(-n4ncc5cc(C#N)cnc54)cc3NC(C)C)nn2)CC1 [Example 356, 1-(5-(4-((1s,4s)-4-(ethylamino)cyclohexyl)-1H-1,2,3-triazol-1-yl)-4-(isopropylamino)pyridin-2-yl)-1H-pyrazolo[3,4-b]pyridine-5-carbonitrile]
22 | – | 2 | – | CC(C)(O)CCc1cn(-c2cnc(-n3ncc4cc(C#N)cnc43)cc2N[C@H]2CC[C@@H](F)CC2)nn1 [Example 374, 1-(4-(((1r,4r)-4-fluorocyclohexyl)amino)-5-(4-(3-hydroxy-3-methylbutyl)-1H-1,2,3-triazol-1-yl)pyridin-2-yl)-1H-pyrazolo[3,4-b]pyridine-5-carbonitrile]
23 | – | 3 | – | CC(C)(O)CCc1cn(-c2cnc(-n3ncc4cc(C#N)cnc43)cc2N[C@H]2CC[C@H](O)CC2)nn1 [Example 385, 1-(5-(4-(3-hydroxy-3-methylbutyl)-1H-1,2,3-triazol-1-yl)-4-(((1 s,4s)-4-hydroxycyclohexyl)amino)pyridin-2-yl)-1H-pyrazolo[3,4-b]pyridine-5-carbonitrile]
24 | – | 2 | – | CC(=O)N[C@H]1CC[C@H](c2cc(-c3cnc(-n4ncc5cc(C#N)cnc54)cc3NC(C)C)on2)CC1 [Example 410, N-((1s,4s)-4-(5-(6-(5-cyano-1H-pyrazolo[3,4-b]pyridin-1-yl)-4-(isopropylamino)pyridin-3-yl)isoxazol-3-yl)cyclohexyl)acetamide]
25 | – | 3 | – | COC(=O)N[C@H]1CC[C@H](c2cc(-c3cnc(-n4ncc5cc(C#N)cnc54)cc3NC(C)C)on2)CC1 [Example 411, methyl ((1s,4s)-4-(5-(6-(5-cyano-1H-pyrazolo[3,4-b]pyridin-1-yl)-4-(isopropylamino)pyridin-3-yl)isoxazol-3-yl)cyclohexyl)carbamate]
